Source: patent US20150087723A1, “MICROBIAL COMPOSITION” (Rohm and Haas Company, priority 2011, published 2015)
“And” between values parts separate entries of the source, which are not always exact repeats. Identical values can stand only once.

Experiments:
Type in all cases: cell-based
[1] = system: Escherichia coli (E. coli—ATCC #10536); assay: Synergy test: high resolution MBC microtiter plate assay, phosphate buffer containing 35% dipropylene glycol, 15 seconds contact; settings: E. coli 10536; for SI (Synergy Index = Qa/QA + Qb/QB): at Qa and Qb, <1 synergy, 1 additivity, >1 antagonism
Text: One measure of synergy is -the industrially accepted method described by Kull, F. C.; Eisman, P. C.; Sylwestrowicz, H. D. and Mayer, R. L., in Applied Microbiology 9:538-541 (1961), using the ratio determined by the formula:
Qa/QA+Qb/QB=Synergy Index (“SI”)
wherein: QA=concentration of compound A (first component) in percent, acting alone, which produced an end point (MBC of Compound A). Qa =concentration of compound A in percent, in the mixture, which produced an end point. QB=concentration of compound B (second component) in percent, acting alone, which produced an end point (MBC of Compound B). Qb=concentration of compound B in percent, in the mixture, which produced an end point.
When the sum of Qa/QA and Qb/QB is greater than one, antagonism is indicated. […] The lower the SI, the greater is the synergy shown by that particular mixture. The minimum biocidal concentration (MBC) of a microbicide is the lowest concentration tested under a specific set of conditions that provides complete kill of the tested microorganisms.
Synergy tests were-conducted using standard microtiter plate assays with, phosphate buffer containing 35% dipropylene glycol (DPG). In this method, a wide range of combinations of chemicals was tested by conducting high resolution MBC assays of Component (A) in the presence of various concentrations of Component (B). High resolution MBCs were determined by adding varying amounts of microbicide to one column of a microtiter plate and doing subsequent ten-fold dilutions using an automated liquid handling system to obtain a series of closely spaced endpoints. The MBC plate was inoculated one column at a time with the test microorganism. An aliquot of the inoculated well was transferred at 15 seconds to a plate containing a neutralizing agent (D/E Neutralizing Broth), mixed and held for 5 minutes before being transferred to a growth plate containing trypticase soy broth (TSB). The TSB plate was incubated at 37° C. and read for the presence/absence of growth at 24 hours. The lowest level tested that provided complete kill (as evidenced by no growth in the microtitre plate) of the test organisms in 15 seconds is the minimum biocidal concentration (MBC).
The synergy of the combinations of the present invention was determined against a bacterium, Escherichia coli (E. coli—ATCC #10536), at a concentration of approximately 1×10^8 bacteria per mL. This microorganism is representative of natural contaminants in many consumer and industrial applications.

[2] = system: Escherichia coli (10536 strain); assay: Antimicrobial efficacy in water, 15 seconds contact, mean bacterial survival NMBS by colony count
Procedure: An overnight culture of Escherichia coli (10536 strain) was prepared in 50 ml total volume of TSB broth, grown for ca. 18 hrs at 37° C. and shaken at 150 rpm. 1 ml of this overnight E. coli culture was transferred to 50 ml of fresh TSB broth and incubated at 37° C. at 150 rpm for ca. 4 hours. […] This bacterial stock was used for assaying against antimicrobial actives (in triplicate).
The following assay describes the testing of 8 materials using 6 dilutions across half of a 96-well micro litre plate (MTP). Using this approach it is possible to assay 16 actives (without replicates) with, one full dilution plate, replicating this set up in two halves of the plate columns, 1-6 and 7-12.
IM solutions of the test actives were prepared in dimethylsulphoxide (DMSO).
Aliquots (270 μl) of the materials at 1.11 times the final concentration were dispensed into the wells of the MTP along one column (A1-H1). This MTP was labeled as the “Screening plate”.
In another MTP, labeled as the “Dilution plate”, 270 μl of D/E neutralising solution from DIFCO Composition was added to column 1. The composition of the neutralising solution was as follows: pancreatic digest of casein, 5.0 g/L; Yeast Extract, 2.5 g/L; Dextrose, 10 g/L, sodium thioglycollate, 1.0 g/L, sodium thiosulphate, 6.0 g/L; sodium bisulphite, 2.5 g/L; Polysorbate 80, 5.0 g/L; lecithin 7.0 g/L; bromocresol purple, 0.02 g/L with a pH is the range 7.6±0.2.
270 μl of tryptone diluent solution was added to all the remaining wells of the Dilution MTP (columns 2-6).
Bacterial stock (30 μl) was then added to the prepared 270 μl of the solution of actives in the Screening Plate and mixed, using a multichannel pipette with 8 tips to aspirate and dispense the same volume of bacterial stock in parallel to 8 wells in rows A-H. After a contact time of 15 seconds, the mixtures were quenched by transferring 30 μl volumes of the mixtures into the 270 μl D/E neutralising solution in the prepared dilution plate, using aspiration to mix. After exactly 5 minutes in the D/E neutralising solution, 30 μl volumes were transferred from column 1 to column 2 of the Dilution MTP and mixed, before transferring further 30 μl volumes from column 2 into column 3. This process was repeated serially diluting the bacteria across the plate to column 6.
30 μl volumes from each well in the Dilution MTP were transferred onto pre-labeled segment of Tryptone Soya Agar (TSA) plates starting from the lowest bacterial concentration (highest dilution, column 6) to the highest bacterial concentration (column 1). The TSA plates were allowed to stand for ca. 2 hours so that the 30 μl inocula spots could dry and the plates were then inverted and incubated overnight at 37° C. before enumerating the bacterial colonies at the labeled dilutions to determine the effects of the actives on bacterial growth.
Mean bacterial survival numbers NMBS (expressed in Log CFU/ml) are obtained by first determining the segment of the TSA plate where the number of bacterial colonies is countable. From the colony number in this segment, NMBS is calculated by the formula: […]
Here, Ncol is the colony count, and DF is the dilution factor taken from the MTP-well corresponding to the TSA plate segment (i.e. DF may range from 1 for the quench, to 6 for the highest dilution).

[3] = system: Staphylococcus aureus (10788 strain); assay: as above

Structure (SMILES) | SI (Synergy Index = Qa/QA + Qb/QB) [1] | Log reduction E. coli ATCC 10536 ([2]; component alone at 0.1% w/v) | Log reduction E. coli ATCC 10536 ([2]; component alone at […] w/v) | Log reduction S. aureus ATCC 6538 ([3]; component alone at 0.1% w/v) | Log reduction S. aureus ATCC 6538 ([3]; component alone at […] w/v) | Qb: MBC of the second component (B) acting alone (QB) ([1]; component alone (Qa = 0), complete kill in 15 seconds)
CCCc1ccccc1O [2-n-propylphenol] | 1.00 | – | – | – | – | –
CC(C)=CCC/C(C)=C/CO [(E)-3,7-dimethylocta-2,6-dien-1-ol] | 1.00 | 1.27 | 1.94 | −0.12 | −0.06 | 0.3 weight % and 0.5 weight % and 0.6 weight %
